From ChEMBL document CHEMBL3085700 (J Med Chem, 2013)
The source made the active and inactive calls. The calls are words filed in the database; no cut-off is given here.

Tests used:
[1] = target: T1, Fatty-acid amide hydrolase 1 (Homo sapiens) (UniProt O00519); assay: Inhibition of human recombinant FAAH overexpressed in African green monkey COS7 cells using [3H]-anandamide as substrate at 3 to 30 uM preincubated for 10 to 60 mins by liquid scintillation counting analysis; type: cell-based; conditions: COS-7
T1 sequence (whole entry): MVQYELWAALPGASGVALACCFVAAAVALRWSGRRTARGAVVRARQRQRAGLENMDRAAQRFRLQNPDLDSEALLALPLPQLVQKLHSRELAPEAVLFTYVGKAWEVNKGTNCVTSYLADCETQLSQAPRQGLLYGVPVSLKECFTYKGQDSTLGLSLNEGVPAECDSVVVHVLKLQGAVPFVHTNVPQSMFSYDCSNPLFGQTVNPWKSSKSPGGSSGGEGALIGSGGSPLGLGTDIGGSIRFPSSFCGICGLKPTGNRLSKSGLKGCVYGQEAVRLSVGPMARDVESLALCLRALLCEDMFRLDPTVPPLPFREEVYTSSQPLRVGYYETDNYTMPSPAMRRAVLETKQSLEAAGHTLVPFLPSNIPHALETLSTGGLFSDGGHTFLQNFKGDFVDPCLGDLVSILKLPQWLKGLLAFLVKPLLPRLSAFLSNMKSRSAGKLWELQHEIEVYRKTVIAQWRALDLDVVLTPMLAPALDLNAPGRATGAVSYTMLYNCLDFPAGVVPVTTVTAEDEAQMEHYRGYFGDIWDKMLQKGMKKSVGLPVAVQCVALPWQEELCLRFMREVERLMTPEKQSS

[2] = target: T2, Fatty-acid amide hydrolase 1 (Mus musculus) (UniProt O08914); assay: Inhibition of TAMRA-FP-labeled FAAH in mouse brain membrane after 1 hr by fluorescent gel scanning assay; type: cell membranes
T2 sequence (whole entry): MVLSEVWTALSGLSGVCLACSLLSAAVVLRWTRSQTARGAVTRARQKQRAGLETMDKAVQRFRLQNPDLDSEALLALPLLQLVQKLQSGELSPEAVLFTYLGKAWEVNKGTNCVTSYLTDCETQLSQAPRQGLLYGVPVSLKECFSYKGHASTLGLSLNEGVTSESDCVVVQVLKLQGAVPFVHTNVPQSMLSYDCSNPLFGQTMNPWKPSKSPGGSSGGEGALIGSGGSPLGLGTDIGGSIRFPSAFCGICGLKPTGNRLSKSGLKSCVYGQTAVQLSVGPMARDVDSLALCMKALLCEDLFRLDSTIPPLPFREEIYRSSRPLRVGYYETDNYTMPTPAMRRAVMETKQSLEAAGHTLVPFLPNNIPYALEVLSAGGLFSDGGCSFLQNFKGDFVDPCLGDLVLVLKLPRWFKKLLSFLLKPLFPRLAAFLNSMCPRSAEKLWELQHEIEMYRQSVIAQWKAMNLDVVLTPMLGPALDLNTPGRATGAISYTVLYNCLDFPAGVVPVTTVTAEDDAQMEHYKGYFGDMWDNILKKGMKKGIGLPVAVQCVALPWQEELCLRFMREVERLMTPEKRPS

[3] = target: T3, Lysophosphatidylserine lipase ABHD12 (Mus musculus) (UniProt Q99LR1); assay: Inhibition of TAMRA-FP-labeled ABHD12 in mouse brain membrane at 10 uM after 1 hr by fluorescent gel scanning assay; type: cell membranes
T3 sequence (whole entry): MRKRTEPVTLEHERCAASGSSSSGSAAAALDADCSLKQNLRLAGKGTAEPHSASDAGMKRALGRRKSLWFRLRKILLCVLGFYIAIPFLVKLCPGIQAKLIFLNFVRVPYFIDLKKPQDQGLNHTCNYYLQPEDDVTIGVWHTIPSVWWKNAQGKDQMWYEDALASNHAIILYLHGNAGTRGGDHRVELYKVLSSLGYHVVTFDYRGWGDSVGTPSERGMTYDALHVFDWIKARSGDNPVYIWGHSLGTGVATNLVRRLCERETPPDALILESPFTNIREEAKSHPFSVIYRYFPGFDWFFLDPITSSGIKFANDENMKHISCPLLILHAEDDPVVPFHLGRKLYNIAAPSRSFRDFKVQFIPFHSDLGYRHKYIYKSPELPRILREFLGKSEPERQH

[4] = target: T4, Fatty-acid amide hydrolase 1 (Homo sapiens, UniProt O00519); assay: Inhibition of human recombinant FAAH overexpressed in African green monkey COS7 cells using [3H]-anandamide as substrate preincubated for 10 mins before substrate addition measured after 10 mins by liquid scintillation counting analysis; type: cell-based, COS-7
T4 sequence (O00519 whole entry): T1 sequence (whole entry)

[5] = target: T5, Prostaglandin G/H synthase 2 (Homo sapiens) (UniProt P35354); assay: Inhibition of human recombinant COX-2 assessed as inhibition of 2-AG cyclooxygenation at 10 uM measured within 10 to 50 secs relative to control
T5 sequence (whole entry): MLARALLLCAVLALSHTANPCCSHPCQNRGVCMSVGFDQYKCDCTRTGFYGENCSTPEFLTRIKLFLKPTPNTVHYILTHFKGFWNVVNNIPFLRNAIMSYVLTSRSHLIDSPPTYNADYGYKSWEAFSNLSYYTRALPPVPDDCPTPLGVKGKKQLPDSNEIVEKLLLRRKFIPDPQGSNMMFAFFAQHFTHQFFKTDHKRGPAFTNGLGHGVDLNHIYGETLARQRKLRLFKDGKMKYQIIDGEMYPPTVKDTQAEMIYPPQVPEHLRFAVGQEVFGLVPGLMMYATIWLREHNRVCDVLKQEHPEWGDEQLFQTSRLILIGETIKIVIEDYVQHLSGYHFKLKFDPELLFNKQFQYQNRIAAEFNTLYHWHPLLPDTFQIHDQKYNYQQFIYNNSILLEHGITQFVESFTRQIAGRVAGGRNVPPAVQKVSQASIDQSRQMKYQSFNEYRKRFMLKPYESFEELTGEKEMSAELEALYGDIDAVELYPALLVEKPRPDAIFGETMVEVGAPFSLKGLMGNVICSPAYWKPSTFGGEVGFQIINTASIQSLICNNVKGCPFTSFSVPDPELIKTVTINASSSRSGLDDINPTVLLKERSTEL

[6] = target: T1, Fatty-acid amide hydrolase 1 (Homo sapiens); assay: Noncompetitive inhibition of human recombinant FAAH overexpressed in African green monkey COS7 cells using anandamide as substrate assessed as decrease in Vmax of substrate hydrolysis preincubated for 10 mins before substrate addition measured after 10 mins by HPLC analysis; conditions: COS-7

inhibition [1]: Active
inhibition [2]: Dose-dependent effect
inhibition [3]: inactive
IC50 ([4]; read-out: IC50): 11 nM
IC50 ([4]; read-out: pIC50 (converted)): 11.5 nM
inhibition [5]: 10%
inhibition [6]: Dose-dependent effect
SMILES: COc1nn([C@@H](C)c2ccc(CC(C)C)cc2)c(=O)o1
